{"source": "ChEMBL document CHEMBL5137114", "about": "“Discovery of IHMT-MST1-58 as a Novel, Potent, and Selective MST1 Inhibitor for the Treatment of Type 1/2 Diabetes” (J Med Chem, 2022)", "key": {"[1]": {"test_system": "Serine/threonine-protein kinase 4 (Rattus norvegicus)", "test": "Inhibition of TNF-alpha-stimulated MST1 in rat RIN-m5F cells assessed as reduction in MOB1 autophosphorylation incubated for 12 hrs by Western blotting analysis", "details": "dose 0.1-10 µM, DDE = dose-dependent effect"}, "[2]": {"test_system": "Serine/threonine-protein kinase 4 (Rattus norvegicus)", "test": "Inhibition of INF-gamma-stimulated MST1 in rat INS1 cells assessed as reduction in MOB1 autophosphorylation incubated for 12 hrs by Western blotting analysis", "details": "dose 0.1-10 µM, DDE = dose-dependent effect"}, "[3]": {"biological_target": "T1, Serine/threonine-protein kinase Nek3 (Homo sapiens) (UniProt P51956)", "T1 sequence (whole entry)": "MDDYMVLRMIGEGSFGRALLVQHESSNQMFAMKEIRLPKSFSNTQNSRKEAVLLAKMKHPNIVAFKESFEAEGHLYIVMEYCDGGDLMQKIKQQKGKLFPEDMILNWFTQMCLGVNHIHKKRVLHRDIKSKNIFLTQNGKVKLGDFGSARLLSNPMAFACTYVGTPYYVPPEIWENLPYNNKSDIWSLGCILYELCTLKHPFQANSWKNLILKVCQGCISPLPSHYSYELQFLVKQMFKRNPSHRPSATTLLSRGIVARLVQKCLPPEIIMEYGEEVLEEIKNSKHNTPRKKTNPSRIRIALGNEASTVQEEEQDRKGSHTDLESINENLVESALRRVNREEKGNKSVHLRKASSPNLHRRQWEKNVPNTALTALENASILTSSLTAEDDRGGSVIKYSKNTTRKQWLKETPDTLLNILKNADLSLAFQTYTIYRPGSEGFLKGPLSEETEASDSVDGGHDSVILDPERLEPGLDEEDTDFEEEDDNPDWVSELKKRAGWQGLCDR", "test": "Binding affinity to wild-type human full length NEK3 (M1 to R506 residues) expressed in mammalian expression system at 1 uM by Kinomescan method"}, "[4]": {"biological_target": "T2, Serine/threonine-protein kinase 4 (Homo sapiens, UniProt Q13043)", "T2 sequence (Q13043 whole entry)": "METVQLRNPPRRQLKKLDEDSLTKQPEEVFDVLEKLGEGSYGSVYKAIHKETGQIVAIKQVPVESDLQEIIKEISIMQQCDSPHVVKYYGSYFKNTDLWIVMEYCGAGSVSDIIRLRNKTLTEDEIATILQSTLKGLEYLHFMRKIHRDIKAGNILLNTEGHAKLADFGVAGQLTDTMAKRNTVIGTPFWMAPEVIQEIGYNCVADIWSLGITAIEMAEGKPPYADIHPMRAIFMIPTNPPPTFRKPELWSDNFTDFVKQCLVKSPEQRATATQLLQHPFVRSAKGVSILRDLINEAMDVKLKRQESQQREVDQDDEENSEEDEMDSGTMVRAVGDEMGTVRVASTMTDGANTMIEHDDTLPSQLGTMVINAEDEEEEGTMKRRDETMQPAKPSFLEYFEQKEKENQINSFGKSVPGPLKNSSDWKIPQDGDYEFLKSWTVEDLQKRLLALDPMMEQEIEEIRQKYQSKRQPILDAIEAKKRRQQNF", "test": "Inhibition of recombinant full length N-terminal GST -tagged human MST1 expressed in baculovirus infected Sf9 insect cells using KKSRGDYMTMQIG as substrate incubated for 1 hr in presence of ATP by ADP-Glo luminescent assay"}, "Mus musculus [5]": {"test_system": "Mus musculus", "test": "Antidiabetic activity against multi low dose STZ-induced C57BL/6J mouse model of type 1 diabetes assessed as food intake at 50 mg/kg, po administered for 1 to 2 days in presence of metformin (reference value: 4.5 g/day)", "assay_type": "functional", "details": "time 1-2 day"}, "Mus musculus [6]": {"test_system": "Mus musculus", "test": "Antidiabetic activity in high fat diet-STZ-induced C57BL/6J mouse model of type 2 diabetes assessed as reduction in HbA1c level at 50 mg/kg, po qd (reference value: 8.6 %)", "assay_type": "functional", "design": "scale not given: the % may be the effect or the level left"}, "[7]": {"test": "AUC (0 to t) in mouse at 10 mg/kg, po measured up to 24 hrs by LC-MS/MS analysis", "assay_type": "ADME, organism-based", "design": "time < 24 hrs, dose 10 mg/kg, route po", "details": "in vivo"}, "RAW264.7 [8]": {"test_system": "RAW264.7", "test": "Inhibition of MST1 in mouse RAW264.7 cells assessed as reduction in H2O2-stimulated MST1/MST2 autophosphorylation at T183/T180 residues preincubated for 2 hrs followed by H2O2 addition for 30 mins by Western blotting analysis", "assay_type": "cell-based", "details": "dose 0.1-10 µM, time 2.5 hrs, DDE = dose-dependent effect"}, "[9]": {"test_system": "Serine/threonine-protein kinase 4 (Rattus norvegicus)", "test": "Inhibition of IL-1beta[…]-stimulated MST1 in rat RIN-m5F cells assessed as reduction in MOB1 autophosphorylation incubated for 12 hrs by Western blotting analysis", "details": "dose 0.1-10 µM, DDE = dose-dependent effect"}, "[10]": {"test": "Half life in Beagle dog at 10 mg/kg, po measured up to 24 hrs by LC-MS/MS analysis", "assay_type": "ADME, organism-based, Canis lupus familiaris", "details": "in vivo"}, "[11]": {"test": "AUC (0 to t) in Beagle dog at 10 mg/kg, po measured up to 24 hrs by LC-MS/MS analysis", "assay_type": "ADME, organism-based, Canis lupus familiaris", "design": "dose 10 mg/kg, time < 24 hrs, route po", "details": "in vivo"}, "Mus musculus [12]": {"test_system": "Mus musculus", "test": "Antidiabetic activity against 8 hrs fasted multi low dose STZ-induced C57BL/6J mouse model of type 1 diabetes assessed as decrease in fasting blood glucose level at 50 mg/kg, po administered for 77 days in presence of metformin (reference value: 22.3 mmol/L)", "assay_type": "functional", "details": "time 77 day"}, "RAW264.7 [13]": {"test_system": "RAW264.7", "test": "Inhibition of MST1 in mouse RAW264.7 cells assessed as reduction in H2O2-stimulated MOB1 phosphorylation at T35 residue preincubated for 2 hrs followed by H2O2 addition for 30 mins by Western blotting analysis", "assay_type": "cell-based", "details": "dose 0.1-10 µM, time 2.5 hrs, DDE = dose-dependent effect"}, "[14]": {"test": "AUC (0 to t) in Sprague-Dawley rat at 1 mg/kg, iv measured up to 12 hrs by LC-MS/MS analysis", "assay_type": "ADME, organism-based", "design": "dose 1 mg/kg, time < 12 hrs, route iv", "details": "in vivo"}, "RIN-m5F": {"test_system": "RIN-m5F", "test": "Protection against IL-1beta-induced cell damage in rat RIN-m5F cells assessed as increase in cell survival at 0.03 to 0.3 uM incubated for 48 hrs by Cell Titer-Glo assay", "assay_type": "functional, cell-based", "details": "dose 0.03-0.3 µM"}, "[15]": {"test": "Half life in Beagle dog at 1 mg/kg, iv measured up to 12 hrs by LC-MS/MS analysis", "assay_type": "ADME, organism-based, Canis lupus familiaris", "details": "in vivo"}, "Mus musculus [16]": {"test_system": "Mus musculus", "test": "Antidiabetic activity in multi low dose STZ-induced C57BL/6J mouse model of type 1 diabetes assessed as reduction in HbA1c level at 50 mg/kg, po qd (reference value: 7.6 %)", "assay_type": "functional", "design": "scale not given: the % may be the effect or the level left"}, "INS1": {"test_system": "INS1", "test": "Protection against TNF-alpha-induced damage in rat INS1 cells assessed as increase in cell survival at 0.03 to 0.3 uM incubated for 48 hrs by Cell Titer-Glo assay", "assay_type": "functional, cell-based", "details": "dose 0.03-0.3 µM"}, "[17]": {"test_system": "Serine/threonine-protein kinase 4 (Rattus norvegicus)", "test": "Inhibition of IL-1beta-stimulated MST1 phosphorylation in rat INS1 cells incubated for 12 hrs by Western blotting analysis", "details": "dose 0.1-10 µM, DDE = dose-dependent effect"}, "[18]": {"test": "Cmax in Beagle dog at 10 mg/kg, po measured up to 24 hrs by LC-MS/MS analysis", "assay_type": "ADME, organism-based, Canis lupus familiaris", "design": "time < 24 hrs, dose 10 mg/kg, route po", "details": "in vivo"}, "Mus musculus [19]": {"test_system": "Mus musculus", "test": "Antidiabetic activity against multi low dose STZ-induced C57BL/6J mouse model of type 1 diabetes assessed as food intake at 50 mg/kg, po administered for 78 to 79 days in presence of metformin (reference value: 4.7 g/day)", "assay_type": "functional", "details": "time 78-79 day"}}, "note": "Activity calls are given as the source filed them. No cut-off for these calls is given here."}
{"smiles": "Cc1ccccc1C1C(=O)N(C)c2cnc(Nc3ccc(S(N)(=O)=O)cc3)nc2N1C", "note": "(stereo unspecified)", "values": [{"measurement": "inhibition", "setting": "[1]", "result": "Dde"}, {"measurement": "inhibition", "setting": "[2]", "result": "Dde"}, {"measurement": "Activity", "setting": "[3]", "result": "Active"}, {"measurement": "IC50", "setting": "[4]", "result": 0.023, "unit": "µM"}, {"measurement": "Activity", "setting": "Mus musculus [5]", "result": 5.4, "unit": "g/day"}, {"measurement": "Activity", "setting": "Mus musculus [6]", "result": 7.9, "unit": "%"}, {"measurement": "AUC(0-t) at 24 h", "setting": "[7]", "result": 5580, "unit": "ng·h/mL"}, {"measurement": "inhibition", "setting": "RAW264.7 [8]", "result": "Dde"}, {"measurement": "inhibition", "setting": "[9]", "result": "Dde"}, {"measurement": "half-life", "setting": "[10]", "result": 5.79, "unit": "h"}, {"measurement": "AUC(0-t) at 24 h", "setting": "[11]", "result": 4940, "unit": "ng·h/mL"}, {"measurement": "Activity", "setting": "Mus musculus [12]", "result": 8.9, "unit": "mmol/L"}, {"measurement": "inhibition", "setting": "RAW264.7 [13]", "result": "Dde"}, {"measurement": "AUCt", "setting": "[14]", "result": 2553, "unit": "ng·h/mL"}, {"measurement": "Activity", "setting": "RIN-m5F", "result": "Active"}, {"measurement": "half-life", "setting": "[15]", "result": 6.47, "unit": "h"}, {"measurement": "Activity", "setting": "Mus musculus [16]", "result": 6.7, "unit": "%"}, {"measurement": "Activity", "setting": "INS1", "result": "Active"}, {"measurement": "inhibition", "setting": "[17]", "result": "Dde"}, {"measurement": "Cmax", "setting": "[18]", "result": 1110, "unit": "ng/mL"}, {"measurement": "Activity", "setting": "Mus musculus [19]", "result": 4.1, "unit": "g/day"}]}
